We go through one compound from publication PMC6366974, “The curcumin analog EF24 is a novel senolytic agent” (Aging (Albany NY), 2019).

What all share (experiment): Cell viability assay (flow cytometry, PI)
Holding throughout (format): cell-based
A general note: In flow cytometry, cells or beads pass a laser one at a time.

The subject of one test is HREC NCs. The settings on record: Homo sapiens, 72 h. The protocol: (§1) Human WI-38 fibroblasts (WI-38, Cat. No. CCL-75), human IMR-90 fibroblasts (IMR-90, Cat. No. CCL-186), human umbilical vein endothelial cells (HUVEC, Cat. No. CRL-1730), human renal epithelial cells (HREC, Cat. No. PCS-400-012) and human pre-adipocytes (Cat. No. PCS-210-010) were newly purchased from the American Type Culture Collection (ATCC, Manassas, VA, USA). WI-38 and IMR-90 cells were cultured in complete Dulbecco’s modified Eagle medium (DMEM, Cat. No. 12430054, Thermo Fisher Scientific, Waltham, MA, USA) supplemented with 10% heat-inactivated fetal bovine serum (FBS, Cat. No. S11150H, Atlanta Biologicals, Flowery Branch, GA, USA), 100 U/mL penicillin and 100 µg/mL streptomycin (Pen Strep, Cat. No. 15140122, Thermo Fisher Scientific, Waltham, MA, USA) in a humidified incubator at 37°C and 5% CO2. HUVEC were cultured in EGM-2 BulletKit (Cat. No. CC-3162, Lonza, Basel, Switzerland) containing basal medium supplemented with growth factors, cytokines and other supplements according to the manufacturer’s protocol. HREC were cultured in renal epithelial cell basal medium (Cat. No. PCS-400-030, ATCC, Manassas, VA, USA) supplemented with renal epithelial cell growth kit (Cat. No. PCS400040, ATCC, Manassas, VA, USA). Human pre-adipocytes were cultured in fibroblast basal medium (Cat. No. PCS-201-030, ATCC, Manassas, VA, USA) supplemented with fibroblast growth kit-low serum (Cat. No. PCS201041, ATCC, Manassas, VA, USA). EF24 (Cat. No. E8409) and HO-3867 (Cat. No. S7501) were purchased from Sigma-Aldrich (St. Louis, MO, USA) and Selleckchem (Houston, TX, USA), respectively. DIMC (Cat. No. 10009986) and 2-HBA (Cat. No. 11879) were both purchased from Cayman Chemical (Ann Arbor, MI, USA).
(§2) Three different methods were used for the induction of SCs, including replicative exhaustion, ionizing radiation and ectopic Ras expression as previously described. Briefly, low-passage WI-38 cells (< 25 passages), IMR-90 cells (< 25 passages), HUVEC (< 10 passages), HREC (< 10 passages) and pre-adipocytes (< 4 passages) were used as NCs or for the induction of senescence. To induce replicative senescence (Rep-SCs), WI-38 and IMR-90 fibroblasts, HUVEC, HREC and pre-adipocytes were subcultured until they stopped to divide and became permanently growth arrested senescence after 38 passages (WI-38), 38 passages (IMR-90), 22 passages (HUVEC), 30 passages (HREC) and 10 passages (pre-adipocytes), respectively. To induce SCs by ionizing radiation (IR-SCs) and ectopic expression of Ras (Ras-SCs), WI-38 NCs were treated as previously described.
(§3) Number of viable cells were quantified using flow cytometry as previously described with slight modifications. Specifically, NCs and SCs were incubated with vehicle (0.1% DMSO) or a test compound at indicated concentrations for 72 h. Following dissociation with 0.25% Trypsin-EDTA (Cat. No. 25200056, Thermo Fisher Scientific, Waltham, MA, USA) at 37°C for 5 min, the cells were harvested in 100 µl pre-cooled phosphate buffered saline (PBS, Cat. No. 20012027, Thermo Fisher Scientific, Waltham, MA, USA) containing 2% FBS and 100 ng/mL propidium iodide (PI, P4170, Sigma-Aldrich, St. Louis, MO, USA) and analyzed using flow cytometry (LSR II, BD Biosciences, San Jose, CA, USA). Percentage of viable cells were determined by counting the number of PI negative cells (viable cells) and then calculated as a ratio of control cells treated with vehicle. In addition, dose-response curves were generated for each compound, and the concentration for 50% of maximal effect (EC50 values) was calculated using GraphPad Prism 6.

A further test relates to HREC Rep-SCs. The note with it: Homo sapiens, 72 h. The protocol: as §1, §2, §3
In the next test the test system is HUVEC NCs. The note with it: Homo sapiens, 72 h. The protocol: as §1, §2, §3
The subject of a further test is HUVEC Rep-SCs. The note with it: Homo sapiens, 72 h. The protocol:
as §1, §2, §3

Another test concerns IMR-90 fibroblasts NCs. The note with it: Homo sapiens, IMR-90, 72 h. The method, then:
as §1, §2, §3

Test [1] deals with IMR-90 fibroblasts Rep-SCs. The settings on record: Homo sapiens, IMR-90, 72 h. The protocol:
as §1, §2, §3

For test [2], the system named is WI-38 replication-exhausted senescent cells (Rep-SCs). The note with it: Homo sapiens; WI-38, 72 h, Table 2. The protocol: as §1, §2, §3
The subject of the next test is pre-adipocytes NCs. The settings on record: Homo sapiens; Pre-adipocyte, 72 h. The protocol:
as §1, §2, §3

The test system of the next test is pre-adipocytes Rep-SCs. The note with it: Homo sapiens; Pre-adipocyte, 72 h. The protocol:
as §1, §2, §3

As a reminder, the EC50 is the concentration needed to bring the measured effect to its halfway point. Take `O=C1/C(=C/c2ccccc2F)CNC/C1=C\c1ccccc1F` [EF24]: the EC50 with HREC NCs stood at 3250 nM; in the test on HREC Rep-SCs, 600 nM; with HUVEC NCs, 1390 nM; in the test on HUVEC Rep-SCs it was 770 nM; in the test with IMR-90 fibroblasts NCs, 10900 nM; in test [1], 330 nM. Besides, the figures for the EC50 (in [2]; in the test on pre-adipocytes NCs; with pre-adipocytes Rep-SCs) were 1260 nM, 8920 nM and 4600 nM, respectively.
